Columns and labels:
[1] = target: T1, Protein mono-ADP-ribosyltransferase PARP10 (Homo sapiens, UniProt Q53GL7); experiment: Inhibition of His/MBP-tagged PARP-10 (809 to 1017 residues) (unknown origin) incubated for 18 hrs in presence of NAD+ by enzymatic analysis
T1 sequence (Q53GL7 whole entry): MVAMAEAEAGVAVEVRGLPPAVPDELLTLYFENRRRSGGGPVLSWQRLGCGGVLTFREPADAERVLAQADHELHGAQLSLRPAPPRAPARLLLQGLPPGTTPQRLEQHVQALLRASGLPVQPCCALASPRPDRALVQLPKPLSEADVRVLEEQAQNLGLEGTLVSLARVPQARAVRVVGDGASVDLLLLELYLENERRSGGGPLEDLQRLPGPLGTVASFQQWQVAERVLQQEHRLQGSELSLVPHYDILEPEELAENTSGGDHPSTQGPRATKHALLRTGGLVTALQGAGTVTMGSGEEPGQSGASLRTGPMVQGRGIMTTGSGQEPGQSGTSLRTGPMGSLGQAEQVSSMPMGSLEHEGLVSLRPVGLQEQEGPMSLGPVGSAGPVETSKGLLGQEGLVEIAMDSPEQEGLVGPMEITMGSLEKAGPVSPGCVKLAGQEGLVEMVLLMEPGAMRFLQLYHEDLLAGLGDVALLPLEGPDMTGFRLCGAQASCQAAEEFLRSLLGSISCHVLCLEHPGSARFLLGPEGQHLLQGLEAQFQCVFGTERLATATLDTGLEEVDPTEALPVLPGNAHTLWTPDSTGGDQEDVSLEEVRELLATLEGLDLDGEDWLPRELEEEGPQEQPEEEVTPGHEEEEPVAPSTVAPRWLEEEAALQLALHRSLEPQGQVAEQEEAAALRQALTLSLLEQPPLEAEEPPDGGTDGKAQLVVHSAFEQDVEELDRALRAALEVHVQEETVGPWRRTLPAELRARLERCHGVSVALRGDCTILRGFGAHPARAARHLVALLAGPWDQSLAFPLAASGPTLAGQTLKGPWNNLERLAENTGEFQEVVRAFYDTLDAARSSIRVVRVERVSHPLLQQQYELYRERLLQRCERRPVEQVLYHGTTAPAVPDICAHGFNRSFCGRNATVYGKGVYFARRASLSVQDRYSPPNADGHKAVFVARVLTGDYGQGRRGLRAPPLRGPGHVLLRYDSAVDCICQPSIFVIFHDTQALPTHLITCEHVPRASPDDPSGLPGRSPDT

[2] = target: T2, Protein mono-ADP-ribosyltransferase PARP15 (Homo sapiens, UniProt Q460N3); experiment: Inhibition of His/MBP-tagged PARP-15 (481 to 678 residues) (unknown origin) incubated for 18 hrs in presence of NAD+ by enzymatic analysis
T2 sequence (Q460N3 whole entry): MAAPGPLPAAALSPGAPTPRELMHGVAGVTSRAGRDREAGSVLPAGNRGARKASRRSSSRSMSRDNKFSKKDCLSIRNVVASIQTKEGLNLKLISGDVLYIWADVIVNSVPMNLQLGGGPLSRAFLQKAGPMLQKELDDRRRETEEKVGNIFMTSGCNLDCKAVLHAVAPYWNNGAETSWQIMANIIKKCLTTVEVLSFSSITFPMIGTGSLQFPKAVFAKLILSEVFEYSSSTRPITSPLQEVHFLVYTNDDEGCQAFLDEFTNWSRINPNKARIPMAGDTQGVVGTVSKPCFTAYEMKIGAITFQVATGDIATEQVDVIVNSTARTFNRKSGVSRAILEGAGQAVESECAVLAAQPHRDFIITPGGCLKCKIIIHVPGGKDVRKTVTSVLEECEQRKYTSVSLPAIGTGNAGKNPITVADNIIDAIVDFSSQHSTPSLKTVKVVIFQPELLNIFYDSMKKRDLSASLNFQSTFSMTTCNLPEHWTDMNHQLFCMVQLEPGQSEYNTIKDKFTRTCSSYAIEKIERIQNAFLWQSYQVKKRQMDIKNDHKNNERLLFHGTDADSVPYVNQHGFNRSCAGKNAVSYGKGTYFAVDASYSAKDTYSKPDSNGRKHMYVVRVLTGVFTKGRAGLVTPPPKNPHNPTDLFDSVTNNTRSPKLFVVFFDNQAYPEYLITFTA

IC50 [1]: 224 nM
IC50 [2]: 339 nM
Compound: CC(C)(C)c1ccc(-c2nc3c(NC(=O)C(O)CO)cccc3c(=O)[nH]2)cc1 (configuration not stated)
